Results published in PubChem BioAssay (NCI).
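Protocol summary: plate cells (96-well), add compound at 5 concentrations, incubate 48 h, interpolate endpoints linearly. GI50 is the concentration that inhibits growth by half. TGI is the concentration that stops growth completely.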

What was measured:
Test in all cases: DTP human tumour cell line panel, 48 h
786-0 renal = test system: 786-0 renal
A498 renal = test system: A498 renal
A549 NSCLC = test system: A549 NSCLC
ACHN renal = test system: ACHN renal
BT-549 breast = test system: BT-549 breast
CAKI-1 renal = test system: CAKI-1 renal
CCRF-CEM leukemia = test system: CCRF-CEM leukemia
COLO 205 colon = test system: COLO 205 colon
DU-145 prostate = test system: DU-145 prostate
HCC-2998 colon = test system: HCC-2998 colon
HCT-116 colon = test system: HCT-116 colon
HCT-15 colon = test system: HCT-15 colon
HL-60(TB) leukemia = test system: HL-60(TB) leukemia
HOP-62 NSCLC = test system: HOP-62 NSCLC
HOP-92 NSCLC = test system: HOP-92 NSCLC
HS 578T breast = test system: HS 578T breast
HT29 colon = test system: HT29 colon
IGROV1 ovarian = test system: IGROV1 ovarian
K-562 leukemia = test system: K-562 leukemia
KM12 colon = test system: KM12 colon
LOX IMVI melanoma = test system: LOX IMVI melanoma
M14 melanoma = test system: M14 melanoma
MALME-3M melanoma = test system: MALME-3M melanoma
MCF7 breast = test system: MCF7 breast
MDA-MB-231 breast = test system: MDA-MB-231 breast
MDA-MB-435 = test system: MDA-MB-435
MOLT-4 leukemia = test system: MOLT-4 leukemia
NCI-H226 lung = test system: NCI-H226 lung
NCI-H23 lung = test system: NCI-H23 lung
NCI-H460 lung = test system: NCI-H460 lung
NCI-H522 lung = test system: NCI-H522 lung
NCI/ADR-RES ovarian = test system: NCI/ADR-RES ovarian
OVCAR-3 ovarian = test system: OVCAR-3 ovarian
OVCAR-4 ovarian = test system: OVCAR-4 ovarian
OVCAR-5 ovarian = test system: OVCAR-5 ovarian
OVCAR-8 ovarian = test system: OVCAR-8 ovarian
PC-3 prostate = test system: PC-3 prostate
RPMI-8226 leukemia = test system: RPMI-8226 leukemia
RXF 393 renal = test system: RXF 393 renal
SF-268 CNS = test system: SF-268 CNS
SF-295 CNS = test system: SF-295 CNS
SF-539 CNS = test system: SF-539 CNS
SK-MEL-2 melanoma = test system: SK-MEL-2 melanoma
SK-MEL-28 melanoma = test system: SK-MEL-28 melanoma
SK-MEL-5 melanoma = test system: SK-MEL-5 melanoma
SK-OV-3 ovarian = test system: SK-OV-3 ovarian
SN12C renal = test system: SN12C renal
SNB-19 CNS = test system: SNB-19 CNS
SNB-75 CNS = test system: SNB-75 CNS
SR leukemia = test system: SR leukemia
SW-620 colon = test system: SW-620 colon
T-47D breast = test system: T-47D breast
TK-10 renal = test system: TK-10 renal
U251 CNS = test system: U251 CNS
UACC-257 melanoma = test system: UACC-257 melanoma
UACC-62 melanoma = test system: UACC-62 melanoma
UO-31 renal = test system: UO-31 renal

Work on COc1cc[nH]c1/C=C1\C(=O)Nc2ccc(F)c(C#CC3(O)CCNCC3)c21 yielded a GI50 (786-0 renal) of 106 nM, a TGI (786-0 renal) of 1680 nM and a GI50 (A498 renal) of 108 nM. It also gave a TGI (A498 renal) of 568 nM, a GI50 (A549 NSCLC) of 98.5 nM and a TGI (A549 NSCLC) of 1180 nM. For the same compound, the GI50 (ACHN renal) was 26.2 nM, the TGI (ACHN renal) was 2560 nM and the GI50 (BT-549 breast) was 318 nM. The TGI (BT-549 breast) was 696 nM, the GI50 (CAKI-1 renal) was 18.1 nM and the TGI (CAKI-1 renal) was 472 nM. The GI50 (CCRF-CEM leukemia) was 77.9 nM, the TGI (CCRF-CEM leukemia) was 836 nM and the GI50 (COLO 205 colon) was 30.3 nM. The TGI (COLO 205 colon) was 372 nM, the GI50 (DU-145 prostate) was 42.9 nM and the TGI (DU-145 prostate) was 2140 nM. It also gave a GI50 (HCC-2998 colon) of 368 nM, a TGI (HCC-2998 colon) of 979 nM and a GI50 (HCT-116 colon) of 12.5 nM. For the same compound, the TGI (HCT-116 colon) was 2760 nM, the GI50 (HCT-15 colon) was 139 nM and the TGI (HCT-15 colon) was 1930 nM. For the same compound, the GI50 (HL-60(TB) leukemia) was 53.2 nM, the TGI (HL-60(TB) leukemia) was 228 nM and the GI50 (HOP-62 NSCLC) was 261 nM. It also gave a TGI (HOP-62 NSCLC) of 1470 nM, a GI50 (HOP-92 NSCLC) of 106 nM and a TGI (HOP-92 NSCLC) of 794 nM. It also gave a GI50 (HS 578T breast) of 75.4 nM, a TGI (HS 578T breast) of 1540 nM and a GI50 (HT29 colon) of 91.6 nM. It also gave a TGI (HT29 colon) of 1100 nM, a GI50 (IGROV1 ovarian) of 383 nM and a TGI (IGROV1 ovarian) of 2270 nM. The GI50 (K-562 leukemia) was 550 nM, the TGI (K-562 leukemia) was 2510 nM and the GI50 (KM12 colon) was 2.5 nM. The TGI (KM12 colon) was 726 nM, the GI50 (LOX IMVI melanoma) was 64.5 nM and the TGI (LOX IMVI melanoma) was 568 nM. For the same compound, the GI50 (M14 melanoma) was 41.3 nM, the TGI (M14 melanoma) was 684 nM and the GI50 (MALME-3M melanoma) was 405 nM. It also gave a TGI (MALME-3M melanoma) of 1110 nM, a GI50 (MCF7 breast) of 111 nM and a TGI (MCF7 breast) of 1900 nM. For the same compound, the GI50 (MDA-MB-231 breast) was 169 nM, the TGI (MDA-MB-231 breast) was 1000 nM and the GI50 (MDA-MB-435) was 74.5 nM. For the same compound, the TGI (MDA-MB-435) was 504 nM, the GI50 (MOLT-4 leukemia) was 63 nM and the TGI (MOLT-4 leukemia) was 965 nM. It also gave a GI50 (NCI-H226 lung) of 138 nM, a TGI (NCI-H226 lung) of 920 nM and a GI50 (NCI-H23 lung) of 161 nM. It also gave a TGI (NCI-H23 lung) of 1140 nM, a GI50 (NCI-H460 lung) of 77.8 nM and a TGI (NCI-H460 lung) of 747 nM. For the same compound, the GI50 (NCI-H522 lung) was 220 nM, the TGI (NCI-H522 lung) was 715 nM and the GI50 (NCI/ADR-RES ovarian) was 2110 nM. It also gave a TGI (NCI/ADR-RES ovarian) of 8240 nM, a GI50 (OVCAR-3 ovarian) of 350 nM and a TGI (OVCAR-3 ovarian) of 1550 nM. For the same compound, the GI50 (OVCAR-4 ovarian) was 346 nM, the TGI (OVCAR-4 ovarian) was 1620 nM and the GI50 (OVCAR-5 ovarian) was 275 nM. For the same compound, the TGI (OVCAR-5 ovarian) was 2370 nM, the GI50 (OVCAR-8 ovarian) was 172 nM and the TGI (OVCAR-8 ovarian) was 1650 nM. The GI50 (PC-3 prostate) was 181 nM, the TGI (PC-3 prostate) was 1950 nM and the GI50 (RPMI-8226 leukemia) was 372 nM. The TGI (RPMI-8226 leukemia) was 1230 nM, the GI50 (RXF 393 renal) was 20.4 nM and the TGI (RXF 393 renal) was 201 nM. It also gave a GI50 (SF-268 CNS) of 196 nM, a TGI (SF-268 CNS) of 848 nM and a GI50 (SF-295 CNS) of 287 nM. The TGI (SF-295 CNS) was 2800 nM, the GI50 (SF-539 CNS) was 106 nM and the TGI (SF-539 CNS) was 426 nM. It also gave a GI50 (SK-MEL-2 melanoma) of 9.88 nM, a TGI (SK-MEL-2 melanoma) of 464 nM and a GI50 (SK-MEL-28 melanoma) of 140 nM. The TGI (SK-MEL-28 melanoma) was 1390 nM, the GI50 (SK-MEL-5 melanoma) was 240 nM and the TGI (SK-MEL-5 melanoma) was 968 nM. The GI50 (SK-OV-3 ovarian) was 17.2 nM, the TGI (SK-OV-3 ovarian) was 2610 nM and the GI50 (SN12C renal) was 62.6 nM. It also gave a TGI (SN12C renal) of 2500 nM, a GI50 (SNB-19 CNS) of 564 nM and a TGI (SNB-19 CNS) of 2150 nM. It also gave a GI50 (SNB-75 CNS) of 14 nM, a TGI (SNB-75 CNS) of 469 nM and a GI50 (SR leukemia) of 8.64 nM. It also gave a TGI (SR leukemia) of 141 nM, a GI50 (SW-620 colon) of 83.2 nM and a TGI (SW-620 colon) of 2670 nM. The GI50 (T-47D breast) was 819 nM, the TGI (T-47D breast) was 2590 nM and the GI50 (TK-10 renal) was 29.1 nM. The TGI (TK-10 renal) was 720 nM, the GI50 (U251 CNS) was 73.6 nM and the TGI (U251 CNS) was 984 nM. The GI50 (UACC-257 melanoma) was 363 nM, the TGI (UACC-257 melanoma) was 1600 nM and the GI50 (UACC-62 melanoma) was 160 nM. For the same compound, the TGI (UACC-62 melanoma) was 633 nM, the GI50 (UO-31 renal) was 119 nM and the TGI (UO-31 renal) was 2190 nM.
